From the NIST ThermoML archive (doi:10.1016/j.fluid.2016.07.004)

Conditions: Liquid, X-ray view cell

c1ccccc1 [benzene]
Conditions | vapor or sublimation pressure [kPa]
378.35 K | 205
401.25 K | 366
421.85 K | 572
437.45 K | 778
460.35 K | 1173
480.45 K | 1622
500.15 K | 2183
520.05 K | 2877
